Assay results reported in PMC12058896, “Potent antimicrobial activity of hydrogel loaded with the antimicrobial peptide, D-Bac8c^2,5 Leu, against monospecies and polymicrobial biofilms of Staphylococcus aureus and Pseudomonas aeruginosa” (Frontiers in Microbiology, 2025).
≈ marks a conversion by molar mass, not a printed value. Marks after values point to notes of the source that are not given here. Non-standard residues stand in square brackets, D forms with d. Residues, ends and D or L forms follow the SMILES beside them.

Legend:
[1] = tested on: PAO1 + SH1000 polymicrobial biofilm; assay: Static polymicrobial biofilm, CFU enumeration; type: cell-based, S. aureus + P. aeruginosa; details: 6 h, 37°C
Procedure: Biofilms were formed under static conditions using flat 96-well polystyrene plates as described previously with few modifications ([Nasreddine et al., 2018]). Briefly, overnight cultures in BHI were washed and diluted 1:200 in fresh Bolton Broth media supplemented with 50% bovine heparin plasma, and 5% laked horse blood. From this suspension, 100 μL was used to inoculate the microtiter plate wells prior to static incubation at 37°C for 24 h, 3 days and 5 days. The media in each well was changed daily during prolonged incubation periods (3 and 5 days). Following the initial incubation period and washing, 100 μL of D-Bac8c^2,5 Leu, was added to each test well at 37°C for 6 h at a concentration range of 64–256 μg/mL. After incubation with D-Bac8c^2,5 Leu, biofilms were washed twice with PBS and biofilm assessment was performed. For the polymicrobial biofilms, a bacterial solution ratio 1:1 of S. aureus and P. aeruginosa at 1 × 10^5 CFU/mL each was used to inoculate the wells. In each assay, inoculated medium without antimicrobials and uninoculated medium served as growth and sterility controls, respectively. Experiments were conducted in triplicate, and independent replicates were performed three times to yield n = 3.
After treatment, formed biofilms were washed twice with sterile PBS and then suspended in TrypLE solution (Gibco, Dublin, Ireland). A serial of 10-fold dilutions of the suspended biofilms were performed in 96-well flat bottom microplates. Then 10 μL of each dilution was plated in triplicate on MH agar using the drop method. For polymicrobial biofilms, dilutions were plated on Mannitol Salt Agar and MacConkey Agar. After overnight incubation at 37°C, CFU were counted and results were expressed as log10CFU/mL.

[2] = tested on: human red blood cells; type: cell-based
Procedure: Potential haemolytic activity of the peptide was determined using fresh human erythrocytes from healthy donors based on the method described by [Cantisani et al. (2013)]. Human blood was drawn [ethylenediaminetetraacetic acid (EDTA); 1.6 mg/mL], and red blood cells (RBCs) were separated by centrifugation at 1000 x g for 5 min at 18°C. Upon 3 washes with PBS, the RBCs were further diluted 2-fold (v/v) into PBS. D-Bac8c^2,5 Leu was added to erythrocyte suspension at a final concentration ranging from 3.125 to 200 μg/mL in a final volume of 100 μL. Samples were incubated at 37°C for 24 h. The level of haemolysis was assessed by measuring the absorbance of supernatant at 490 nm. Triton-X-100 was used as a positive control for haemolysis.

[3] = tested on: TNFα; details: ref Zapotoczna et al. (2017); cited from earlier work
Source text: (§1) Similarly, here we verified that D-Bac8c^2,5 Leu has low toxicity to human monocytes THP-1.

[4] = tested on: IL-8; details: ref Zapotoczna et al. (2017); cited from earlier work
Source text: as §1

[5] = tested on: tested strains (SH1000, BH48, USA300, BH1CC, PAO1); assay: In vitro serial passage, induction of resistance; type: cell-based, S. aureus and P. aeruginosa; details: subculturing for 14 days at sub-MIC concentrations
Procedure: This assay was performed as outlined previously with some modifications ([Ge et al., 1999]; [Mohan et al., 2019]). Briefly, the in vitro serial passage study involved exposing bacteria diluted to 10^4 CFU/mL in cationic adjusted Muller Hinton Broth (Merck, Ireland) to D-Bac8c^2,5 Leu at one-half of the previously established bactericidal concentration. After 90 min of incubation at 37°C, 10 μL was plated in triplicate on MH agar and incubated again overnight. Post-incubation, surviving colonies were harvested, diluted in PBS and re-adjusted to 1 × 10^4 CFU/mL before repeated treatment with the sub-bactericidal concentration. This concentration was determined prior to the initiation of the study and after the 4th, 7th, 11th, and 14th passages. If the concentration after these passages was greater than the original determinate, then at passages […], the amount of peptide used during the bacterial challenge was increased. This was continued over a 14-day course. This assay was performed in independent duplicates.

[6] = tested on: S. aureus strains; type: cell-based, Staphylococcus aureus; details: 2 MRSA and 2 MSSA strains, summed up in text
Procedure: (§2) Strains used in the study were isolates of methicillin-resistant Staphylococcus aureus (MRSA); USA300 LAC, BH1CC ([O’Neill et al., 2007]), methicillin-sensitive S. aureus (MSSA); SH1000 ([Horsburgh et al., 2002]) and BH48 ([O’Neill et al., 2007]); and Pseudomonas aeruginosa PAO1 (ATCC […]). Clinical isolates were obtained from a previous collection of isolates of infected wounds. Bacteria were grown aerobically at 37°C with shaking at 200 rpm in Brain Heart Infusion (BHI, Oxoid, Ireland). Selective media, Mannitol Salt Agar (SLS, Ireland) and MacConkey agar (SLS, Ireland), for re-isolation of bacterial strains from mixed species biofilms were used. Bolton Broth (Fannin, Ireland) supplemented with 50% bovine heparin plasma (TebuBio, UK), and 5% laked horse blood (Sigma-Aldrich, Ireland) was used to mimic in vivo conditions for static antibiofilm testing. For dynamic biofilm growth Simulated Wound Fluid (SWF) prepared as described previously with slight modification, 3% v/v fetal bovine serum in maximum recovery diluent (Merck, Ireland) was used ([Barbour et al., 2016]).
Minimum inhibitory concentration (MIC) was determined aerobically using the broth microdilution assay as recommended by the Clinical and Laboratory Standards Institute (CLSI) ([CLSI, 2018]). […]

[7] = tested on: USA300; assay: microbe, parasite or virus in culture; type: cell-based, Staphylococcus aureus; details: USA300, 18 h
Procedure: as §2
(§3) Minimum inhibitory concentration (MIC) was determined aerobically using the broth microdilution assay as recommended by the Clinical and Laboratory Standards Institute (CLSI) ([CLSI, 2018]). Briefly, 2-fold serial dilutions of the antimicrobial peptides of interest and conventional antibiotics were prepared in Mueller-Hinton broth (MHB) (Merck, Ireland) in a 96-well round bottom polypropylene plate (ThermoFisher, Ireland). Diluted bacterial suspensions in sterile PBS (Sigma, Ireland) were added to each well resulting in a final cell density of approximately 10^5 colony forming units (CFU)/mL. Microplates were incubated statically for 18 h at 37°C. In each assay, inoculated medium without antimicrobials and uninoculated medium served as growth and sterility controls, respectively. Conventional antibiotics, gentamicin (Merck, Ireland) and mupirocin (SLS, UK), were tested as comparator antimicrobials. The MIC value was defined as the lowest antimicrobial concentration showing no visible growth relative to positive (no antimicrobial agent) and negative controls (BHI alone). Experiments were conducted in triplicate, and independent replicates were performed three times to yield n = 3.

[8] = tested on: PAO1; assay: microbe, parasite or virus in culture; type: cell-based, Pseudomonas aeruginosa; details: PAO1, 18 h
Procedure: as §2, §3

CC(C)C[C@@H](NC(=O)[C@H](N)CCCNC(=N)N)C(=O)N[C@H](Cc1c[nH]c2ccccc12)C(=O)N[C@@H](C(=O)N[C@H](CC(C)C)C(=O)N[C@H](Cc1c[nH]c2ccccc12)C(=O)N[C@H](CCCNC(=N)N)C(=O)N[C@H](CCCNC(=N)N)C(N)=O)C(C)C [D-Bac8c^2,5 Leu] (H-[dR][dL][dW][dV][dL][dW][dR][dR]-NH2; N-terminus assumed)
Log change vs. untreated control ([1]; 24 h biofilm PAO1 + SH1000, 64 μg/mL, left column of pair under S. aureus + P. aeruginosa): −0.6 Log | Log change vs. untreated control ([1]; 24 h biofilm PAO1 + SH1000, 64 μg/mL, right column of pair under S. aureus + P. aeruginosa): −0.64 Log | Log change vs. untreated control ([1]; 24 h biofilm PAO1 + SH1000, 128 μg/mL, left column of pair): −1.65* Log | Log change vs. untreated control ([1]; 24 h biofilm PAO1 + SH1000, 128 μg/mL, right column of pair): −1.61* Log | Log change vs. untreated control ([1]; 24 h biofilm PAO1 + SH1000, 256 μg/mL): −3.78*** Log | haemolytic activities [2]: negligible | effect on TNFα [3]: without affecting | biofilm-induced increase in IL-8 levels [4]: inhibited | development of resistance (change in MIC) [5]: not accompanied by increased resistance | MIC against S. aureus strains [6]: 8 µg/mL (≈ 6.76 µM) | MIC [7]: 8 µg/mL (≈ 6.76 µM) | MIC [8]: 16 µg/mL (≈ 13.5 µM)
